{
  "source": "patent US12185720B2",
  "about": "“Chitooligosaccharides and methods for use in enhancing plant growth” (NOVOZYMES BIOAG A/S, priority 2011, dated 2025)",
  "system": "Tomato seeds of hybrid tomato var. Royal Mounty",
  "experiment": "In vitro tomato seedling root growth bioassay (agar medium)",
  "format": "in vivo",
  "details": "day 7; control water",
  "description": "Tomato seeds of hybrid tomato var. Royal Mounty were surface sterilized with 10% bleach solution for 10 minutes followed by 3 rinses with sterilized distilled water. Seeds were then dried in a laminar air flow hood for 3 hours. Seeds were then placed in petri-dishes on solidified agar medium containing various concentrations of different sources of the LCO illustrated in FIG. 1b (manufactured by Darmstadt, Germany and Grenoble, France) (also referred to in the examples as the “soybean LCO”) and the inventive CO illustrated in FIG. 2a (also referred to in the examples as the “pea CO” or “CO-V”). Seedling roots were measured by a hand ruler and root fresh weights were taken in a micro balance at day 7. Growth study was done in a growth chamber at 22° C.",
  "data": [
    {"substance": "LCO-V(C18:1, MeFuc) [Soybean LCO, reference compound]", "values": [
      {"measurement": "root fresh weight, compared to control seedlings", "result": "significantly better than control seedlings"},
      {"measurement": "root length, compared to control seedlings", "result": "significantly better than control seedlings"}
    ]}
  ]
}
